# Several values for one entry are separate records, joined by “and”; a condition that tells them apart may be missing. Equal entries are not always repeated. Toxic doses and inconclusive results are not listed.
# Test system: L1210 leukemia ip in BDF1 mice, survival T/C
# Assay: NCI In Vivo Anticancer Drug Screen. Data for tumor model L1210 Leukemia (intraperitoneal) in B6D2F1 (BDF1) mice
# Conditions: endpoint: mean survival time, higher = longer survival
# Outline: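 Mice bearing the transplanted tumor received compound or vehicle. Survival of the treated group was divided by that of the vehicle-treated control group to give the ratio.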
smiles,measurement,setting,value
CN(Cc1cnc2nc(N)nc(N)c2n1)c1c(Cl)cc(C(=O)NC(CCC(=O)O)C(=O)O)cc1Cl (centres undefined),T/C,"dose: 40.0 mg/kg/injection, schedule: Q01DX009 (ip), vehicle: carboxymethylcellulose (CMC)",161 % of control
same,T/C,"dose: 40.0 mg/kg/injection, schedule: Q01DX Z (ip), vehicle: methylcellulose (MC)",169 % of control
same,T/C,"dose: 40.0 mg/kg/injection, schedule: Q01DX Z (oral), vehicle: alkali diluted with saline",102 % of control
same,T/C,"dose: 50.0 mg/kg/injection, schedule: Q## X003 (ip), vehicle: other",124 % of control
same,T/C,"dose: 50.0 mg/kg/injection, schedule: Q## X016 (ip), vehicle: other",121 % of control
same,T/C,"dose: 67.5 mg/kg/injection, schedule: Q01DX Z (ip), vehicle: saline",150 % of control
same,T/C,"dose: 70.0 mg/kg/injection, schedule: Q01DX001 (ip), vehicle: methylcellulose (MC)",116 % of control
same,T/C,"dose: 70.0 mg/kg/injection, schedule: Q01DX Z (ip), vehicle: clinical formulation",103 % of control
same,T/C,"dose: 70.0 mg/kg/injection, schedule: Q07DX Z (ip), vehicle: methylcellulose (MC)",116 % of control
same,T/C,"dose: 80.0 mg/kg/injection, schedule: Q01DX005 (ip), vehicle: carboxymethylcellulose (CMC)",158 % of control
same,T/C,"dose: 80.0 mg/kg/injection, schedule: Q01DX006 (iv), vehicle: alkali diluted with saline",165 % of control
same,T/C,"dose: 80.0 mg/kg/injection, schedule: Q01DX Z (im), vehicle: alkali diluted with saline",113 % of control
same,T/C,"dose: 80.0 mg/kg/injection, schedule: Q01DX Z (oral), vehicle: alkali diluted with saline",94 % of control
same,T/C,"dose: 80.0 mg/kg/injection, schedule: Q01DX Z (sc), vehicle: alkali diluted with saline",112 % of control
same,T/C,"dose: 90.0 mg/kg/injection, schedule: Q01DX Z (ip), vehicle: saline",94 % of control
same,T/C,"dose: 100.0 mg/kg/injection, schedule: Q01DX001 (sc), vehicle: carboxymethylcellulose (CMC)",111 % of control
same,T/C,"dose: 100.0 mg/kg/injection, schedule: Q04DX003 (ip), vehicle: alkali diluted with saline",124 % of control
same,T/C,"dose: 120.0 mg/kg/injection, schedule: Q01DX001 (ip), vehicle: carboxymethylcellulose (CMC)",117 % of control
same,T/C,"dose: 120.0 mg/kg/injection, schedule: Q03DX Z (ip), vehicle: methylcellulose (MC)",153 % of control
same,T/C,"dose: 120.0 mg/kg/injection, schedule: Q## X008 (ip), vehicle: other",112 % of control
same,T/C,"dose: 140.0 mg/kg/injection, schedule: Q01DX001 (ip), vehicle: methylcellulose (MC)",116 % of control
same,T/C,"dose: 140.0 mg/kg/injection, schedule: Q01DX Z (ip), vehicle: clinical formulation",110 % of control
same,T/C,"dose: 140.0 mg/kg/injection, schedule: Q07DX Z (ip), vehicle: methylcellulose (MC)",123 % of control
same,T/C,"dose: 200.0 mg/kg/injection, schedule: Q01DX001 (sc), vehicle: carboxymethylcellulose (CMC)",114 % of control
same,T/C,"dose: 200.0 mg/kg/injection, schedule: Q01DX001 (sc), vehicle: other",121 % of control
same,T/C,"dose: 200.0 mg/kg/injection, schedule: Q04DX003 (ip), vehicle: carboxymethylcellulose (CMC)",157 % of control
same,T/C,"dose: 200.0 mg/kg/injection, schedule: Q## X016 (ip), vehicle: other",162 % of control
same,T/C,"dose: 240.0 mg/kg/injection, schedule: Q01DX001 (ip), vehicle: alkali diluted with saline",115 % of control
same,T/C,"dose: 240.0 mg/kg/injection, schedule: Q01DX001 (ip), vehicle: other",113 % of control
same,T/C,"dose: 240.0 mg/kg/injection, schedule: Q## X008 (ip), vehicle: other",112 % of control
same,T/C,"dose: 285.0 mg/kg/injection, schedule: Q01DX001 (ip), vehicle: carboxymethylcellulose (CMC)",110 % of control
same,T/C,"dose: 400.0 mg/kg/injection, schedule: Q01DX001 (ip), vehicle: olive oil, sesame oil, peanut oil",114 % of control
same,T/C,"dose: 400.0 mg/kg/injection, schedule: Q01DX001 (sc), vehicle: other",121 % of control
same,T/C,"dose: 400.0 mg/kg/injection, schedule: Q04DX003 (ip), vehicle: alkali diluted with saline",166 % of control
same,T/C,"dose: 400.0 mg/kg/injection, schedule: Q07DX Z (ip), vehicle: olive oil, sesame oil, peanut oil",97 % of control
same,T/C,"dose: 434.0 mg/kg/injection, schedule: Q01DX001 (ip), vehicle: carboxymethylcellulose (CMC)",121 % of control
same,T/C,"dose: 480.0 mg/kg/injection, schedule: Q01DX001 (ip), vehicle: alkali diluted with saline",122 % of control
same,T/C,"dose: 560.0 mg/kg/injection, schedule: Q01DX001 (ip), vehicle: methylcellulose (MC)",123 % of control
same,T/C,"dose: 800.0 mg/kg/injection, schedule: Q01DX001 (ip), vehicle: olive oil, sesame oil, peanut oil",109 % of control and 120 % of control
same,T/C,"dose: 800.0 mg/kg/injection, schedule: Q04DX003 (ip), vehicle: alkali diluted with saline",168 % of control
same,T/C,"dose: 800.0 mg/kg/injection, schedule: Q07DX Z (ip), vehicle: olive oil, sesame oil, peanut oil",106 % of control
same,T/C,"dose: 800.0 mg/kg/injection, schedule: Q## X003 (ip), vehicle: other",169 % of control
same,T/C,"dose: 800.0 mg/kg/injection, schedule: Q## X016 (ip), vehicle: other",165 % of control
same,T/C,"dose: 875.0 mg/kg/injection, schedule: Q01DX001 (ip), vehicle: alkali diluted with saline",158 % of control
same,T/C,"dose: 960.0 mg/kg/injection, schedule: Q01DX001 (ip), vehicle: carboxymethylcellulose (CMC)",158 % of control
same,T/C,"dose: 1200.0 mg/kg/injection, schedule: Q01DX001 (ip), vehicle: olive oil, sesame oil, peanut oil",115 % of control and 122 % of control
same,T/C,"dose: 1200.0 mg/kg/injection, schedule: Q07DX Z (ip), vehicle: olive oil, sesame oil, peanut oil",95 % of control
same,T/C,"dose: 1600.0 mg/kg/injection, schedule: Q04DX003 (ip), vehicle: alkali diluted with saline",98 % of control
same,T/C,"dose: 1600.0 mg/kg/injection, schedule: Q07DX Z (ip), vehicle: olive oil, sesame oil, peanut oil",101 % of control

# From PubChem BioAssay AID248 (DTP/NCI, 2004)
